This passage reports Km results from PMC11434850, “Biosynthesis of Piceatannol from Resveratrol in Grapevine Can Be Mediated by Cresolase-Dependent Ortho-Hydroxylation Activity of Polyphenol Oxidase” (Plants, 2024).

The structures appear in SMILES notation.

The assay relates to T1, polyphenol oxidase (PPO), cresolase activity; most likely isoform XP_010647098.3.
T1 construct: pooled fractions A7 and A8; immunoreactive bands 40, 52 and faint 70 kDa; proteolytic processing possible
Description: Michaelis-Menten / double reciprocal plot; piceatannol formation by LC-MS MRM. The format is biochemical, Vitis vinifera. The conditions noted are these: o-hydroxylation (cresolase) to piceatannol; O2, 1 mM ascorbate, 0.1 M potassium phosphate pH 7.5, room temperature, 90 min, 5 to 200 µM substrate; partially purified, mixture of A7 and A8 fractions.

A word on the Km: it is the concentration of substrate that gives half-maximal velocity. In the case of `Oc1ccc(/C=C/c2cc(O)cc(O)c2)cc1` [trans-resveratrol, 3,4′,5-trihydroxy-trans-stilbene], the Michaelis constant (Km) is 118 ± 49.8 µM.
